According to patent publication US11066412B2, “Substituted pyrrolo[2,1-a]phthalazines and benzo[g]pyrrolo[2,1-a]phthalazines for the treatment of cancer” (Academia Sinica, priority 2017, dated 2021):
Where two headings read alike, the source gives them in different places.

Tests used:
[1] = body weight changes of xenograft-bearing nude mice; assay type: in vivo; conditions: H526 xenograft mice
Description: (§1) Athymic nude mice bearing the nu/nu gene were obtained from the National Laboratory Animal Center (Taipei, Taiwan). Male nude mice (6 weeks or older weighing 20-24 g or more) were used for all human tumor xenografts. The tested compounds were intravenously administered through tail vein. Tumor volume was determined by measuring the length x width x height (or width) with calipers. The vehicle used for the tested compounds was normal saline (0.9% NaCl isotonic solution). For tumor-bearing nude mice during the course of the experiment, the % body weight changes refer to: (the total weight on reading day/the total weight on day treatment started)×100.

[2] = tested on: small cell lung cancer H526; assay: in vitro cytotoxicity, PrestoBlue assay; assay type: cell-based, human; conditions: read-out: IC50 H526
H211 = assay: in vitro cytotoxicity to SCLC cells; assay type: cell-based, human; conditions: Table 3
Description: (§2) After a 72-hr incubation in various concentrations of the newly synthesized compounds, the cytotoxic effects of them to all cell lines were determined by the PrestoBlue®(Invitrogen) assay using a microplate spectrophotometer. Briefly, at the end of treatment, an aliquot of PrestoBlue® solution was added and then cells were incubated at 37° C. for 1-2 hr. The absorbance at 570 and 600 nm was measured with a microplate reader. […] The ICso is defined by the concentration required to inhibit tumor cell growth by 50%. Data represent the mean±STDEV of three to six independent experiments for each compound.

H1417 = assay: in vitro cytotoxicity to SCLC cells; assay type: cell-based, human; conditions: Table 3
Description: as §2

H146 = assay: in vitro cytotoxicity to SCLC cells; assay type: cell-based, human; conditions: Table 3
Description: as §2

H82 = assay: in vitro cytotoxicity to SCLC cells; assay type: cell-based, human; conditions: Table 3
Description: as §2

pancreatic cancer PacaS1 = assay: in vitro cytotoxicity, PrestoBlue assay; assay type: cell-based, human; conditions: Table 2
Description: (§3) All representative compounds of Formulae (I-A) and (I-B) were first evaluated for their in vitro cytotoxicity to human lymphoblastic leukemia cell line (CCRF-CEM) and its vinblastine-resistant sub-cell line (CCRF-CEM/VBL) (see Table 1).
as §2

colon cancer HCT-116 = assay: in vitro cytotoxicity, PrestoBlue assay; assay type: cell-based, human; conditions: Table 2
Description: as §3, §2

[3] = tested on: non-small cell lung cancer H460; assay: in vitro cytotoxicity, PrestoBlue assay; assay type: cell-based, human; conditions: Table 2
Description: as §3, §2

[4] = tested on: vinblastine-resistant sub-cell line (CCRF-CEM/VBL); assay: in vitro cytotoxicity, PrestoBlue assay; assay type: cell-based, human
Description: as §3, §2

[5] = tested on: human SCLC H526 xenografts; assay: tumor growth in xenograft-bearing nude mice; assay type: in vivo; conditions: micelle formulation (Kolliphor/TWEEN 80/PEG400/ethanol/D5W); BO-2768 at 20 mg/kg twice daily; FIG. 12, panel A
Description: as §1, with “The vehicle used for the tested compounds was normal saline (0.9% NaCl isotonic solution).” left out
In all experiments, the tumor cells were subcutaneously implanted in nude mice, and the BO-2590L was administered via tail vein when the tumor size reaching approximate 100 mm^3. […]
To confirm the therapeutic activity of BO-2590L, comparative experiments carried out by known chemotherapeutic agents, such as vatanalib and cisplatin, were also performed. Briefly, the H526 xenograft-bearing mice were divided into 4 groups which were treated with vehicle, BO-2590L (10 mg/kg, QD×9), vatalanib (100 mg/kg, QD×9), and cisplatin (4 mg/kg, Q2D×3), respectively. Results are illustrated in FIG. 11.
Results are illustrated in FIGS. 12 and 13.

γ-H2AX = assay: immunohistochemical staining of tumor xenograft sections, DNA damage marker; assay type: in vivo, nude mice; conditions: for γ-H2AX in tumors: FIG. 16, panel A; for γ-H2AX signals, quantitative analysis: FIG. 16, panel B
Description: Tumor xenograft tissue sections on the slides were deparaffinized in xylene twice for 7 min each time. The slides were then rehydrated in graded ethanol, serially from 100% to 70%, followed by rinsing in dH2O. Antigen retrieval was performed using citrate buffer (0.01M, pH 6.0) with incubation in a cooker for 50 mins followed by ambient temperature cooling for 30 min. and then dH2O rinsing. Later slides were subjected to immunohistochemical (IHC) staining with primary antibodies (anti-rabbit CD31 antibody and anti-mouse γ-H2AX antibody) obtained from Abeam® following the manufacturer's instructions (Novolink Polymer Detection system, Leica Biosystems, Wetzlar, Germany).^11 After IHC processing, the slides were scanned digitally using the Panoramic 250 Flash II whole slide scanner and analyzed by 3[…] Panoramic viewer software (3[…] Ltd., Budapest, Hungary).
As BO-2590L is a DNA damaging agent, we thus investigated the effect of BO-2590L on the level of a DNA damage marker, γ-H2AX, via the use of immunohistochemical staining.

H526 cells = assay: single cell electrophoresis (comet) assay; assay type: cell-based; conditions: FIG. 2
Source text: The data is the average of 3 independent experiments.
To this purpose, cells were encapsulating in a low-melting-point agarose suspension on a microscope slide, then were lysed in neutral or alkaline (pH>13) condition, and electrophoresis of the suspended lysed cells. The term “comet” refers to the pattern of DNA migration through the electrophoresis gel, which often resembles a comet, and the intensity of the comet tail relative to the head reflects the number of DNA breaks.

CD31 = assay: immunohistochemical staining of tumor xenograft sections, blood vessels; assay type: in vivo, nude mice; conditions: for blood vessel in tumors (anti-CD31 staining): compared to vehicle control, FIG. 15, panel A; for CD31 marker intensity compared to control: day 9, H526 tumors, FIG. 15, panel B
Description: Tumor xenograft tissue sections on the slides were deparaffinized in xylene twice for 7 min each time. The slides were then rehydrated in graded ethanol, serially from 100% to 70%, followed by rinsing in dH2O. Antigen retrieval was performed using citrate buffer (0.01M, pH 6.0) with incubation in a cooker for 50 mins followed by ambient temperature cooling for 30 min. and then dH2O rinsing. Later slides were subjected to immunohistochemical (IHC) staining with primary antibodies (anti-rabbit CD31 antibody and anti-mouse γ-H2AX antibody) obtained from Abeam® following the manufacturer's instructions (Novolink Polymer Detection system, Leica Biosystems, Wetzlar, Germany).^11 After IHC processing, the slides were scanned digitally using the Panoramic 250 Flash II whole slide scanner and analyzed by 3DHISTECH Panoramic viewer software (3DHISTECH Ltd., Budapest, Hungary).
The density of blood vessels within the tumors was evaluated by immunofluorescence staining using anti-CD31 (a marker of endothelial cells) (FIG. 15, panel A). […] After IHC, slides were scanned by Panoramic 250 Flash II whole slide scanner. The expression of CD31 in tissue sections were determined from 15 different fields of 3 tumor sections and counts were averaged using 3DHISTECH Panoramic viewer software (3DHISTECH Ltd., Budapest, Hungary). […] However, on day 9, CD31 marker intensity was reduced to 4% in tumors treated with BO-2590L or vatalanib compared to control (FIG. 15, panel B). […] On day 9, CD31 marker intensity in cisplatin-treated tumor was 19% of control, which was less extent than BO-2590L or vatalanib.

[6] = tested on: human lymphoblastic leukemia cell line (CCRF-CEM); assay: in vitro cytotoxicity, PrestoBlue assay; assay type: cell-based; conditions: 72-hr incubation; mean ± STDEV of three to six experiments; read-out: IC50 CCRF-CEM
Description: as §3, §2

EA.hy926 cells = assay: Tube-Formation Assay; assay type: cell-based; conditions: 24 hr pre-treatment, 48-hr incubation on matrigel; FIG. 4
Description: Angiogenesis is the process of generating new blood vessels derived as extensions from the existing vasculature. Performance of vascular behavior or monitoring tube formation can determine whether the compound is capable of interrupting angiogenesis. In this example, whether the compound of formula (I) interrupted angiogenesis was investigated using Tube-Formation Assay.
Briefly, EA.hy926 cells were treated with various concentrations of BO-2590 for 24 hr. After that, cells (5×10^5 cells/well) were suspended in 100 μl medium containing 1% FCS and subsequently seeded onto 96-well plate pre-coated with matrigel 1 h at 37° C. After a 48-hr incubation, tube-formation ability was examined under a phase microscope.

With N.N.[Cl][Pt][Cl] [Cisplatin, reference compound] the “deleterious effects on the bodyweight of the test animals” value ([1]; micelle formulation, FIG. 12, panel B) was “none”, the body weight ([1]; BO-2590L 10 mg/kg for consecutive 9 days, cisplatin 4 mg/Kg, FIG. 11, panel B) was “severe body weight lost” and the IC50 ([2]; Table 2) was 0.73 ± 0.07 µM. The IC50 ([2]; Table 3) was 1.75 ± 0.71 µM, the IC50 (H211) was 0.78 ± 0.46 µM and the IC50 (H1417) was 40.8 ± 5.97 µM. The IC50 (H146) was 10.2 ± 2.99 µM, the IC50 (H82) was 1.75 ± 0.39 µM and the “IC50 Paca SI” value (pancreatic cancer PacaS1) was 27.04 ± 0.98 µM. For the same compound, the IC50 (colon cancer HCT-116) was 9.17 ± 0.67 µM, the IC50 [3] was 5.11 ± 0.22 µM and the IC50 ([4]; 72-hr incubation, mean ± STDEV of three to six experiments, read-out: IC50 CEM/VBL) was 8.88 ± 1.86 µM. The “resistance factor (IC50 CEM/VBL vs IC50 of the parent cell line)” value ([4]; number in brackets) was 0.54 ×, the tumor size [5] was “slowly increased in size” and the γ-H2AX in tumors (γ-H2AX) was “remarkably increased in γ-H2AX”. For the same compound, the “γ-H2AX signals, quantitative analysis” value (γ-H2AX) was “time-dependently increased in γ-H2AX signals”, the “DNA damage (comet tail)” value (H526 cells) was “inducing DNA breaks in a dose dependent manner” and the “blood vessel in tumors (anti-CD31 staining)” value (CD31) was “significantly reduced blood vessel”. For the same compound, the “CD31 marker intensity compared to control” value (CD31) was 19% and the IC50 [6] was 16.5 ± 0.9 µM.

With Clc1ccc(Nc2nnc(Cc3ccncc3)c3ccccc23)cc1 [vatalanib] the tube formation (EA.hy926 cells) was “suppressed tube formation, but at much higher concentrations”, the γ-H2AX in tumors (γ-H2AX) was “much less level” and the “γ-H2AX signals, quantitative analysis” value (γ-H2AX) was “moderate level of γ-H2AX”. The “blood vessel in tumors (anti-CD31 staining)” value (CD31) was “significantly reduced blood vessel” and the “CD31 marker intensity compared to control” value (CD31) was 4%.
